From patent publication US8299074B2, “P38 MAP kinase inhibitors” (RespiVert Ltd., priority 2008, dated 2012) come the findings set out here.

Each structure is given as a SMILES string. Where two headings read alike, the source gives them in different places. Where only a bound is given, the exact number is not on record here.

The subject of series [1] is Differentiated U937 cells. The series is described as follows: MTT assay (cell viability). Type of series: cell-based, human. As for the experimental part:
MTT Assay Differentiated U937 cells were pre-incubated with compound for 4 hrs in 5% FCS or 10% FCS for 24 hrs. […] After 1 hr incubation, the media were removed, 200 ul of DMSO added to each well and the plates were shaken lightly for 1 h prior to reading the absorbance at 550 nm. The percentage loss of cell viability was calculated for each well relative to vehicle (0.5% DMSO)-treatment. Consequently an apparent increase in cell viability for drug treatment relative to vehicle is tabulated as a negative percentage.
(Tetrazolium assays rely on reduction of a dye to a coloured formazan, in cell work by metabolically active cells.)

For another series, the system named is BEAS2B cells. The experiment in a line: Poly I:C-induced ICAM-1 induction in BEAS2B cells. Type of series: cell-based. The conditions noted are these: Homo sapiens, BEAS-2B, read-out: BEAS2B (polyIC) ICAM1 IC50. As for the experimental part: Poly I:C-Induced ICAM-1 Induction in BEAS2B Cells: Potency Poly I:C (1 ug/ml) (Invivogen Ltd., San Diego, Calif.) was transfected into BEAS2B cells (human bronchial epithelial cells, ATCC) with Oligofectamine (Invitrogen, Carlsbad, Calif.). Cells were pre-incubated with final concentrations of compound for 2 hrs. The level of ICAM1 expression on the cell surface was determined by cell-based ELISA. Briefly, at 18 hrs after poly I:C transfection, cells were fixed with 4% formaldehyde in PBS. After quenching endogenous peroxidase by adding 0.1% sodium azide and 1% hydrogen peroxide, cells were washed with wash-buffer (0.1% Tween in PBS: PBS-Tween). After blocking the wells with 5% milk in PBS-Tween for 1 hr, the cells were incubated with anti-human ICAM-1 antibody (Cell Signaling Technology, Danvers, Mass.) in 1% BSA PBS overnight at 4° C. Cells were washed with PBS-Tween and incubated with the secondary antibody (HRP-conjugated anti-rabbit IgG, Dako Ltd., Glostrup, Denmark). The ICAM-1 signal was detected by adding substrate and reading at 450 nm with a reference wavelength of 655 nm using a spectrophotometer. […] The measured OD 450-655 readings were corrected for cell number by dividing with the OD595 reading in each well.

For the next series, the target named is T1, p38 MAPK alpha (MAPK14) (Homo sapiens, UniProt Q16539).
T1 construct: purchased Invitrogen
T1 sequence (Q16539 whole entry): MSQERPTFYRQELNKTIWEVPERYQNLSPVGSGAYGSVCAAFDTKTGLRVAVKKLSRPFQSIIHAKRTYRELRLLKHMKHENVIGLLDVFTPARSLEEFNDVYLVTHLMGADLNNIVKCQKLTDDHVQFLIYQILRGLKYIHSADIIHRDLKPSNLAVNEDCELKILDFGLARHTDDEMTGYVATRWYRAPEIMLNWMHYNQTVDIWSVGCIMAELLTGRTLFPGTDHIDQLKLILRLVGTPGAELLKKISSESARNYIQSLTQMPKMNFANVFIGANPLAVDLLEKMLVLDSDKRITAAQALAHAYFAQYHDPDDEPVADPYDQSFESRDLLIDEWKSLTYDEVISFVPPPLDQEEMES
The series is described as follows: Enzyme inhibition assay, p38 MAPK alpha (FRET, Z-LYTE, via MAPKAP-K2). Type of series: biochemical. As to conditions: read-out: Enzyme p38α IC50.

A further series deals with THP-1 cells. The series is described as follows: LPS-induced TNF alpha release in THP-1 cells. As to conditions: Homo sapiens. Type of series: cell-based. As for the experimental part: LPS-Induced TNF Alpha Release in THP-1 Cells: Potency […] Coli; O111:B4, Sigma) for 4 hr and the supernatant collected for determination of TNFα concentration by sandwich ELISA (Duo-set, R&D systems). The inhibition of TNFα production was calculated at each concentration by comparison with vehicle control.

Series [2] concerns U937 cells. The series is described as follows: LPS-induced IL-8 release in U937 cells. It is filed as cell-based. As to conditions: Homo sapiens, read-out: DU937 (LPS) IL-8 IC50. The procedure:
(§1) LPS-Induced TNF Alpha/IL-8 Release in U937 Cells: Potency U937 cells, human monocytic cell line, were differentiated to macrophage-type cells by incubation with phorbol myristate acetate (PMA; 100 ng/ml) for 48 to 72 hours. Cells were pre-incubated with final concentrations of compound for 2 hrs. […] Coli: O111:B4, Sigma) for 4 hrs, and the supernatant collected for determination of TNFα and IL-8 concentration by sandwich ELISA (Duo-set, R&D systems). […] The inhibition of IL-8 production was calculated at each concentration of test compound by comparison with vehicle control.

Series [3] has as its system U937 cells. The series is described as follows: LPS-induced TNF alpha release in U937 cells. Type of series: cell-based. As for the experimental part: as §1
The mark [4] stands for this setting: Table 3, first MTT column, loss of cell viability at 1 μg/ml.
[5] abbreviates: Table 3, second MTT column, loss of cell viability at 1 μg/ml.
[6] abbreviates: THP-1, Table 3, read-out: THP-1 (LPS) TNFα IC50.
The mark [7] stands for this setting: Homo sapiens; read-out: DU937 (LPS) TNFα REC50.
[8] abbreviates: Table 2, loss of cell viability at 1 μg/ml.
Setting [9] is: THP-1, read-out: THP-1 (LPS) TNFα IC50.
[10] abbreviates: Homo sapiens, read-out: DU937 (LPS) TNFα REC50.
[11] abbreviates: Table 2, loss of cell viability, test conducted at 10 μg/ml.
The mark [12] stands for this setting: Table 1, MTT, loss of cell viability at 1 μg/ml.
Setting [13] is: Table 1, first MTT column, loss of cell viability at 1 μg/ml.
[14] abbreviates: THP-1, Table 1, read-out: THP-1 (LPS) TNFα IC50.

For the molecule `Cc1ccc(-n2nc(C(C)(C)C)cc2NC(=O)Nc2ccc(Oc3ccnc(NC(=O)NCC(=O)N4CCCC4)c3)c3ccccc23)cc1` [Example 53, N-(2-(3-(4-(4-(3-(3-tert-Butyl-1-p-tolyl-1H-pyrazol-5-yl)ureido)naphthalen-1-yloxy)pyridin-2-yl)ureido)acetyl)pyrrolidine], the “DU937 (cell viability) MTT assay 4 h” value in series [1] (setting [4]) and in series [1] (setting [5]) was “− (<=30%)” in each case. The half-inhibitory concentration (IC50) – broadly, the concentration that gives 50% inhibition – in the series on BEAS2B cells (Table 3) was less than 0.01 µM; on p38 MAPK alpha (MAPK14) (Table 3), less than 0.01 µM; with THP-1 cells (setting [6]) it was less than 0.01 µM; with U937 cells [2] (Table 3) it was less than 5 µM. In addition, in the series on U937 cells [3] (setting [7]), the EC50 is less than 0.01 µM.
With `Cc1ccc(-n2nc(C(C)(C)C)cc2NC(=O)Nc2ccc(Oc3ccnc(NC(=O)CNC(=O)c4ccncc4)c3)c3ccccc23)cc1` [Example 17, N-(2-(4-(4-(3-(3-tert-Butyl-1-p-tolyl-1H-pyrazol-5-yl)ureido)naphthalen-1-yloxy)pyridin-2-ylamino)-2-oxoethyl)isonicotinamide], in series [1] (setting [8]), the “DU937 (cell viability) MTT assay 4 h” value is “− (<=30%)”. Further, the “DU937 (cell viability) MTT assay 24 h” value in series [1] (setting [8]) is listed as “+ (>30%)”. The concentration for half-maximal inhibition (IC50) in the series with BEAS2B cells, on p38 MAPK alpha (MAPK14) (Table 2), in the series with THP-1 cells (setting [9]) and with U937 cells [2] was less than 0.01 µM each time. Moreover, the EC50 with U937 cells [3] (setting [10]) is less than 0.01 µM.
Regarding `Cc1ccc(-n2nc(C(C)(C)C)cc2NC(=O)Nc2ccc(Oc3ccnc(NC(=O)N(C)C)c3)c3ccccc23)cc1` [Example 44, 3-(4-((4-(3-(3-(tert-Butyl)-1-(p-tolyl)-1H-pyrazol-5-yl)ureido)naphthalen-1-yl)oxy)pyridin-2-yl)-1,1-dimethylurea], the “DU937 (cell viability) MTT assay 4 h” value in series [1] (setting [4]) and in series [1] (setting [5]) was “− (<=30%)” in each case. In addition, the 50% inhibitory concentration (IC50) was less than 0.01 µM in the series with BEAS2B cells, less than 5 µM at p38 MAPK alpha (MAPK14) (Table 3), less than 0.01 µM in the series with THP-1 cells (setting [9]) and less than 0.01 µM in the series on U937 cells [2]. In the series with U937 cells [3] (setting [10]), the EC50 is less than 0.01 µM.
Take `Cc1ccc(-n2nc(C(C)(C)C)cc2NC(=O)Nc2ccc(Oc3ccnc(NC(=O)N4CCCC4)c3)c3ccccc23)cc1` [Example 55, N-(4-(4-(3-(3-tert-Butyl-1-p-tolyl-1H-pyrazol-5-yl)ureido)naphthalen-1-yloxy)pyridin-2-yl)pyrrolidine-1-carboxamide]: the “DU937 (cell viability) MTT assay 4 h” value in series [1] (setting [4]) and in series [1] (setting [5]) was “− (<=30%)” each time. For the same molecule, the IC50 in the series with BEAS2B cells (Table 3), at p38 MAPK alpha (MAPK14) (Table 3), with THP-1 cells (setting [6]) and in the series with U937 cells [2] (Table 3) was less than 0.01 µM each time. Besides, the EC50 in the series with U937 cells [3] (setting [7]) was less than 0.01 µM.
As for `Cc1ccc(-n2nc(C(C)(C)C)cc2NC(=O)Nc2ccc(Oc3ccnc(NC(=O)CN(C)C)c3)c3ccccc23)cc1` [Example 12, N-(4-(4-(3-(3-tert-Butyl-1-p-tolyl-1H-pyrazol-5-yl)ureido)naphthalen-1-yloxy)pyridin-2-yl)-(dimethylamino)acetamide], the “DU937 (cell viability) MTT assay 4 h” value in series [1] (setting [11]) is reported as “−^$ (<=30%)”. For the same molecule, the “DU937 (cell viability) MTT assay 24 h” value in series [1] (setting [11]) is recorded as “+^$ (>30%)”. Moreover, the half-maximal inhibitory concentration (IC50) in the series on BEAS2B cells (Table 2) was less than 5 µM; at p38 MAPK alpha (MAPK14) (Table 2), less than 0.01 µM; in the series on THP-1 cells (THP-1, Table 2, read-out: THP-1 (LPS) TNFα IC50), less than 0.01 µM; with U937 cells [2] (Table 2) it was less than 0.01 µM. Besides, in the series on U937 cells [3] (setting [7]), the EC50 is less than 0.01 µM.
On to `COCCNC(=O)Nc1cc(Oc2ccc(NC(=O)Nc3cc(C(C)(C)C)nn3-c3ccc(C)cc3)c3ccccc23)ccn1` [Example 34, 1-(3-(tert-Butyl)-1-(p-tolyl)-1H-pyrazol-5-yl)-3-(4-((2-(3-(2-methoxyethyl)ureido)pyridin-4-yl)oxy)naphthalen-1-yl)urea], for which the “DU937 (cell viability) MTT assay 4 h” value in series [1] (Table 3, first MTT column, loss of cell viability, test conducted at 10 μg/ml) was “−^ ^$ (<=30%)”; in series [1] (Table 3, second MTT column, loss of cell viability, test conducted at 10 μg/ml), “+^$ (>30%)”. Further, the concentration for half-maximal inhibition (IC50) was less than 5 µM in the series on BEAS2B cells (Table 3), less than 5 µM at p38 MAPK alpha (MAPK14) (Table 3), less than 0.01 µM with THP-1 cells (setting [6]) and less than 5 µM with U937 cells [2] (Table 3). Besides, the EC50 in the series on U937 cells [3] (setting [7]) was less than 5 µM.
For `Cc1ccc(-n2nc(C(C)(C)C)cc2NC(=O)Nc2ccc(Oc3ccnc(NC(=O)N(C)C)n3)c3ccccc23)cc1` [Example 68, 1,1-Dimethyl-3-(4-(4-(3-(3-tert-butyl-1-p-tolyl-1H-pyrazol-5-yl)ureido)naphthalen-1-yloxy)pyrimidin-2-yl)urea], the “DU937 (cell viability) MTT assay 4 h” value in series [1] (setting [12]) and in series [1] (setting [13]) was “− (<=30%)” each time. Also, the 50% inhibitory concentration (IC50) with BEAS2B cells (Table 1) was less than 0.01 µM; at p38 MAPK alpha (MAPK14) (Table 1), less than 0.01 µM; with THP-1 cells (setting [14]), less than 5 µM; with U937 cells [2] (Table 1) it was less than 0.01 µM. Moreover, the EC50 in the series on U937 cells [3] (setting [7]) was less than 0.01 µM.
For the molecule `Cc1ccc(-n2nc(C(C)(C)C)cc2NC(=O)Nc2ccc(Oc3ccnc(NC(=O)NCc4cc(C)no4)c3)c3ccccc23)cc1` [Example 49, N-(3-Methylisoxazol-5-yl)methyl-N′-4-(4-(3-(3-tert-butyl-1-p-tolyl-1H-pyrazol-5-yl)ureido)naphthalen-1-yloxy)pyridin-2-ylurea], the “DU937 (cell viability) MTT assay 4 h” value in series [1] (setting [4]) and in series [1] (setting [5]) was “− (<=30%)” throughout. Further, the IC50 with BEAS2B cells (Table 3) was less than 5 µM; on p38 MAPK alpha (MAPK14) (Table 3) it was less than 0.01 µM; with THP-1 cells (setting [6]) it was less than 0.01 µM; in the series with U937 cells [2] (Table 3), less than 5 µM. For the same molecule, in the series with U937 cells [3] (setting [7]), the EC50 is less than 0.01 µM.
Turning to `COCCNC(=O)CNC(=O)Nc1cc(Oc2ccc(NC(=O)Nc3cc(C(C)(C)C)nn3-c3ccc(C)cc3)c3ccccc23)ccn1` [Example 62], the “DU937 (cell viability) MTT assay 4 h” value in series [1] (setting [4]) and in series [1] (setting [5]) was “− (<=30%)” each time. For the same molecule, the IC50 with BEAS2B cells (Table 3), at p38 MAPK alpha (MAPK14) (Table 3), in the series with THP-1 cells (setting [6]) and with U937 cells [2] (Table 3) was less than 0.01 µM throughout. Also, in the series with U937 cells [3] (setting [7]), the EC50 was less than 0.01 µM.
On to `CNC(=O)Nc1nccc(Oc2ccc(NC(=O)Nc3cc(C(C)(C)C)nn3-c3ccc(C)cc3)c3ccccc23)n1` [Example 67, 1-Methyl-3-(4-(4-(3-(3-tert-butyl-1-p-tolyl-1H-pyrazol-5-yl)ureido)naphthalen-1-yloxy)pyrimidin-2-yl)urea], for which the “DU937 (cell viability) MTT assay 4 h” value in series [1] (setting [12]) and in series [1] (setting [13]) was “− (<=30%)” throughout. Moreover, the IC50 in the series with BEAS2B cells (Table 1) was less than 5 µM; at p38 MAPK alpha (MAPK14) (Table 1), less than 5 µM; in the series on THP-1 cells (setting [14]), less than 0.01 µM; in the series with U937 cells [2] (Table 1), less than 0.01 µM. Moreover, the EC50 in the series on U937 cells [3] (setting [7]) was less than 0.01 µM.
As to `Cc1ccc(-n2nc(C(C)(C)C)cc2NC(=O)Nc2ccc(Oc3ccnc(NC(N)=O)n3)c3ccccc23)cc1` [Example 66, 3-(4-(4-(3-(3-tert-Butyl-1-p-tolyl-1H-pyrazol-5-yl)ureido)naphthalen-1-yloxy)pyrimidin-2-yl)urea], the “DU937 (cell viability) MTT assay 4 h” value in series [1] (setting [12]) and in series [1] (setting [13]) was “− (<=30%)” in each case. Moreover, the IC50 was less than 5 µM in the series on BEAS2B cells (Table 1), less than 5 µM on p38 MAPK alpha (MAPK14) (Table 1), less than 0.01 µM in the series with THP-1 cells (setting [14]) and less than 0.01 µM in the series on U937 cells [2] (Table 1). In addition, in the series with U937 cells [3] (setting [7]), the EC50 is less than 0.01 µM.
